From patent US10464920B2, “Vicinal primary diamines associated with metal and/or free radical chelation motifs, and active against carbonyl and oxidative stress, and use thereof” (UNIVERSITE AMIENS PICARDIE JULES VERNE, priority 2015, dated 2019)

Key:
[1] = system: murine endothelial brain cells (bEnd.3); assay: Cytotoxicity, cellular viability (CCK-8/WST-8) on bEnd.3; type: cell-based; conditions: mouse
Experimental: (§1) The cellular viability is evaluated by a colorimetric method based on the detection of the conversion of a salt of the tetrazolium (WST-8) by the metabolically active cells (CCK-8 kit, Sigma, Lyons, France) (Molecules, 2014, 19(8), 12048-12064; J. Pharmacol. Toxicol. Methods., 2007, 56(1), 58-62). Living cells have mitochondrial dehydrogenases that reduce the WST-8 (2-(2-methoxy-4-nitrophenyl)-3-(4-nitrophenyl)-5-(2,4-disulfophenyl)-2H-tetrazolium), monosodium salt) to formazan of an orange colour, which dissolves directly in the culture medium in the presence of 1-Methoxy PMS (1-methoxy-5-methylphenazinium methyl sulphate). After an incubation for 1 h at 37° C., the absorbance of the formazan is measured at 450 nm. The absorbance is directly proportional to the number of living cells.
(§2) Briefly, the cells are inoculated in 96-well plates at a rate of 5.10^3 cells per well in 100 μL of the suitable medium until subconfluence. The cells are then washed with D-PBS, then treated with various concentrations (10 μM, 100 μM) of the products to be tested in triplicates for 24 and 48 h. A positive control is carried out with 10% of DMSO. The CCK-8 (10 μL) solution is then added to each well for an incubation for 1 h at 37° C. The measurement of the absorbance is taken at 450 nm using a Perkin Elmer 2103 Envision® microplate reader.
(§3) The viability of the cells is expressed as a % of the control (untreated cells) by the mean±standard deviation of triplicates forming a representative experiment or of three independent experiments conducted in triplicate.

[2] = ORACFL test (Oxygen Radical Absorbance Capacity) using fluorescein/AAPH; type: physicochemical; conditions: compounds at 10 μM; for ORACFL: mean ± SEM of three independent experiments in triplicate
Experimental: The antioxidant properties of the compounds according to the invention were evaluated using a ORACFL test using fluorescein (J. Agric. Food Chem., 2004 52, 48-54; J. Agric. Food Chem., 2005, 53, 4290-4302). As such, peroxide radicals, generated in the presence of AAPH (2,2′-azobis(2-methylpropionamidine)dihydrochloride) at 37° C., react with this fluorescent sensor in order to give a non-fluorescent product. The protective effect of the test compounds can then be determined by following the decay curve of the fluorescence of the fluorescein over time and be measuring the area under the curve (AUC) of the sample in relation to that of a control corresponding to an absence of antioxidant.
The trolox (6-hydroxy-2,5,7,8-tetramethylchroman-2-carboxylic acid), a water-soluble analogue of vitamin E, is used as a standard for calculating the antioxidant capacity (ORACFL) of the compounds tested at 10 μM, expressed in […] of tested compound. This value is as such obtained using the straight-line calibration equation giving the area under the curve according to the various concentrations of trolox (Bioorg. Med. Chem., 2015, 23, 1135-1148) (FIG. 11).
A solution of fluorescein (FL) (12 nM; 150 μL) is introduced into a black 96-well plate (Dutscher, Brumath, France). The compounds to be tested (1-20 μM; 25 μL) or trolox (1-50 μM; 25 μL) dissolved in D-PBS are added into each well. After equilibration of the plate during an incubation at 37° C. for a minimum of 30 min, the radical reactions are initiated using a solution of AAPH prepared extemporaneously (30 mM; 25 μL). The fluorescence (λEx: 485 nm; λEm: 520 nm) is measured every 90 seconds for 60 cycles using a temperature-controlled Tecan Infinite® 200 PRO microplate reader (measurements taken in triplicates during three independent experiments).

[3] = system: human fibroblasts (MRC-5); assay: Cytotoxicity, cellular viability (CCK-8/WST-8) on MRC-5; type: cell-based
Experimental: as §1, §2, §3

[4] = system: low-density lipoproteins (LDLs); assay: Antiradical properties: inhibition of lipid peroxidation in AAPH-induced oxidation of LDLs; type: biochemical; conditions: for anti-radical properties compared with Dap-Pip and vitamin E: concentrations from 1 to 10 μM; for antioxidant effect: concentrations ranging from 1 to 100; for antioxidant properties: low concentrations of about 1 μM
Experimental: The antiradical properties of the various compounds are determined by inhibition of the lipid peroxidation in the in vitro model of the oxidation of the low-density lipoproteins (LDLs) (Free Radic. Biol. Med., 1992, 13, 341-390). The lipid peroxidation is initiated by the attack by free radicals of a double bond of a polyunsaturated fatty acid present in the LDLs. […] Once initiated, the oxidation of the LDLs is a chain reaction of lipid peroxidation generated by the free radicals. The oxidation in vitro of the LDLs is induced at 37° C. by the adding of the water-soluble compound 2,2′-Azobis(2-methylpropionamidine)dihydrochloride (AAPH), which generates free radicals during the spontaneous thermal breakdown thereof
Briefly, the oxidation, carried out in a 96-well plate, is induced at 37° C. by adding 20 μL of a solution of AAPH at 2 mM in D-PBS at 160 μL of LDL (100 μg/mL) in the presence or absence of 20 μL of the various solutions of the compounds to be tested dissolved in D-PBS (0.1 to 100 μM in final concentrations). The LDLs alone without adding AAPH are used as a negative control. Each oxidation is carried out in double. During the oxidation, the formation of the conjugated dienes is followed by the measurement of the optical density at 234 nm every 10 minutes for 8 h at 37° C. using a temperature-controlled TECAN spectrophotometer. The vitamin E (α-tocopherol) which is a powerful antioxidant recognised in this in vitro model is used as a reference molecule (J. Nutr. Biochem., 2012, 23, 845-51).

[5] = MRC-5, 10 μM, 24 h of treatment
[6] = MRC-5, 10 μM, 48 h of treatment
[7] = MRC-5, 100 μM, 24 h of treatment
[8] = MRC-5, 100 μM, 48 h of treatment
[9] = lower concentrations, 0.1 to 10 μM

| SMILES | viability of the cells as a percentage of the untreated cells ([1]; 24 h, 10 μM) | viability of the cells as a percentage of the untreated cells ([1]; 24 h, 100 μM) | viability of the cells as a percentage of the untreated cells ([1]; 48 h, 10 μM) | viability of the cells as a percentage of the untreated cells ([1]; 48 h, 100 μM) | ORACFL [2] | viability of the cells as a percentage of the untreated cells [3, 5] | viability of the cells as a percentage of the untreated cells [3, 6] | viability of the cells as a percentage of the untreated cells [3, 7] | viability of the cells as a percentage of the untreated cells [3, 8] | anti-radical properties compared with Dap-Pip and vitamin E [4] | antioxidant effect [4] | antioxidant properties [4] | antioxidant / pro-oxidant behaviour ([4]; concentrations ranging from 25 to 100) | antioxidant / pro-oxidant behaviour [4, 9] | antioxidant capacity (ORACFL), in words [2] | antioxidant / pro-oxidant behaviour ([4]; concentrations ranging from 50 to 100) |
| --- | --- | --- | --- | --- | --- | --- | --- | --- | --- | --- | --- | --- | --- | --- | --- | --- |
| NCC(N)CCCNC(=O)CCn1cccc(O)c1=O (stereo not shown) [Compound 37a, N-(4,5-diaminopentyl)-3-(3-hydroxy-2-oxopyridin-1(2H)-yl)propanamide] | 97% | 103% | 99% | 93% | 0.58 ± 0.02 μmol TE/μmol | 112% | 107% | 124% | 105% | higher than those of the 2nd generation Dap-Pip derivative, and even those of vitamin E | increasing antioxidant effect | best antioxidant properties |  |  |  |  |
| COc1cc(/C=C/C(=O)N2CCN(C(=O)CCC(N)CN)CC2)ccc1O (stereo not shown) [Compound 29a, (E)-4,5-diamino-1-(4-(3-(4-hydroxy-3-methoxyphenyl)acryloyl)piperazin-1-yl)pentan-1-one] | 98% | 87% | 90% | 83% | 2.05 ± 0.23 μmol TE/μmol | 103% | 104% | 99% | 103% |  |  |  | antioxidants | pro-oxidants |  |  |
| NCC(N)CCC(=O)NCCCn1cccc(O)c1=O (stereo not shown) [Compound 37c, 4,5-diamino-N-(3-(3-hydroxy-2-oxopyridin-1(2H)-yl)propyl)pentanamide] | 99% | 85% | 86% | 84% | 1.03 ± 0.03 μmol TE/μmol | 97% | 94% | 89% | 90% | higher than those of the 2nd generation Dap-Pip derivative, and even those of vitamin E | increasing antioxidant effect | best antioxidant properties |  |  | most active |  |
| NCC(N)CCCCNC(=O)c1cc(O)c(O)c(O)c1 (stereo not shown) [Compound 30b, N-(5,6-diaminohexyl)-3,4,5-trihydroxybenzamide] | 93% | 99% | 92% | 87% | 2.59 ± 0.35 μmol TE/μmol | 98% | 92% | 101% | 100% | higher than those of the 2nd generation Dap-Pip derivative, and even those of vitamin E |  |  |  | highly antioxidant | most active | highly pro-oxidant |
| NCC(N)CCCCNC(=O)CCn1cccc(O)c1=O (stereo not shown) [Compound 37b, N-(5,6-diaminohexyl)-3-(3-hydroxy-2-oxopyridin-1(2H)-yl)propanamide] | 126% | 115% | 101% | 100% | 0.99 ± 0.09 μmol TE/μmol | 113% | 103% | 113% | 101% |  |  |  |  |  |  |  |
